We go through ten compounds from ChEMBL document CHEMBL5291721, “A preclinical secondary pharmacology resource illuminates target-adverse drug reaction associations of marketed drugs” (Nat Commun, 2023).

The target in one assay is T1, Adenosine receptor A1 (Homo sapiens, UniProt P30542).
T1 sequence (P30542 whole entry): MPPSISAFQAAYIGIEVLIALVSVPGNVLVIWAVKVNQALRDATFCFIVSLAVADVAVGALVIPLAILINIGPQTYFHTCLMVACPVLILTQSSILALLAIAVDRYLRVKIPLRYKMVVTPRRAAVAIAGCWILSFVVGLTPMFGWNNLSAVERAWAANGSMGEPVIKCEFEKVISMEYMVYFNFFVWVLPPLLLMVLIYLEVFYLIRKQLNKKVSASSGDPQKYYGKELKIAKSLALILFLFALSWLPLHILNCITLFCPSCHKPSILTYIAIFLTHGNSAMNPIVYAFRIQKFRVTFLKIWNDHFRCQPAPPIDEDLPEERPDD

The target of assay [1] is T2, Alpha-2A adrenergic receptor (Homo sapiens, UniProt P08913).
T2 sequence (P08913 whole entry): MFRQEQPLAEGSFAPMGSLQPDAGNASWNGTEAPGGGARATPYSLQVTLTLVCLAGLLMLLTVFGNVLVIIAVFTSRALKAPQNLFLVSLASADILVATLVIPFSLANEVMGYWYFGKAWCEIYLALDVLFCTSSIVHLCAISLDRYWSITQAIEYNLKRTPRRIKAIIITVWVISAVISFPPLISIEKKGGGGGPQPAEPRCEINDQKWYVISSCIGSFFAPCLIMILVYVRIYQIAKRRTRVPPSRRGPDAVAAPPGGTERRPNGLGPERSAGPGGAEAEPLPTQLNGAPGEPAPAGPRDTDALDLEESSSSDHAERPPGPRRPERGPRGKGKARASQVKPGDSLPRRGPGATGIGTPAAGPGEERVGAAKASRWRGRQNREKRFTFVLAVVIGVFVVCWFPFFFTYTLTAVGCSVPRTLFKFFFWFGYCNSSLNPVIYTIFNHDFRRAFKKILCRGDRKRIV
Type of assay: functional, cell-based.

For assay [2], the target named is T3, Type-1 angiotensin II receptor (Homo sapiens, UniProt P30556).
T3 sequence (P30556 whole entry): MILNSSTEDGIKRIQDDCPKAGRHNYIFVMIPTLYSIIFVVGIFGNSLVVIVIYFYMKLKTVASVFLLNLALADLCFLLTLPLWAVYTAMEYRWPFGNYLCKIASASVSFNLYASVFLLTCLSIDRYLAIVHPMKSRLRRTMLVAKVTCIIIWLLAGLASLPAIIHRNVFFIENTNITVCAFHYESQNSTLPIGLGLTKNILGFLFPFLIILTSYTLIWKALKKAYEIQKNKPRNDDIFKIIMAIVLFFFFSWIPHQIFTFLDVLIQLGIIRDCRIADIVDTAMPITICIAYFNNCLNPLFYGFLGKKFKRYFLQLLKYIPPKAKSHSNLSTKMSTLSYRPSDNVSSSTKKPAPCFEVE

The target in assay [3] is T4, Muscarinic acetylcholine receptor M2 (Homo sapiens, UniProt P08172).
T4 sequence (P08172 whole entry): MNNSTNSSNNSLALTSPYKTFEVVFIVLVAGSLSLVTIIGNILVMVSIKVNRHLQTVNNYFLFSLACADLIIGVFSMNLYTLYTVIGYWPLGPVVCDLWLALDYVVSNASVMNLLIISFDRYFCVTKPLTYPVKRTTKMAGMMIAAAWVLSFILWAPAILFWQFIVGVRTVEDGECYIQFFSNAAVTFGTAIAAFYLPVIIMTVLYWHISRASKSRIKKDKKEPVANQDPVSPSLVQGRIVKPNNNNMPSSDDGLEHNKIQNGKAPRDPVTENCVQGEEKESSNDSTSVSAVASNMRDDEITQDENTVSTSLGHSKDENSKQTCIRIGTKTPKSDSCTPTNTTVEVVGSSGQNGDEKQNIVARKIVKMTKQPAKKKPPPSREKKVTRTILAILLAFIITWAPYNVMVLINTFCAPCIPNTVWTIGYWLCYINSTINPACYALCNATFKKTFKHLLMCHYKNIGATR
In kind it is functional, cell-based.

The target of assay [4] is Muscarinic acetylcholine receptor M3 (Homo sapiens, UniProt P20309).
Sequence of Muscarinic acetylcholine receptor M3 (P20309 whole entry): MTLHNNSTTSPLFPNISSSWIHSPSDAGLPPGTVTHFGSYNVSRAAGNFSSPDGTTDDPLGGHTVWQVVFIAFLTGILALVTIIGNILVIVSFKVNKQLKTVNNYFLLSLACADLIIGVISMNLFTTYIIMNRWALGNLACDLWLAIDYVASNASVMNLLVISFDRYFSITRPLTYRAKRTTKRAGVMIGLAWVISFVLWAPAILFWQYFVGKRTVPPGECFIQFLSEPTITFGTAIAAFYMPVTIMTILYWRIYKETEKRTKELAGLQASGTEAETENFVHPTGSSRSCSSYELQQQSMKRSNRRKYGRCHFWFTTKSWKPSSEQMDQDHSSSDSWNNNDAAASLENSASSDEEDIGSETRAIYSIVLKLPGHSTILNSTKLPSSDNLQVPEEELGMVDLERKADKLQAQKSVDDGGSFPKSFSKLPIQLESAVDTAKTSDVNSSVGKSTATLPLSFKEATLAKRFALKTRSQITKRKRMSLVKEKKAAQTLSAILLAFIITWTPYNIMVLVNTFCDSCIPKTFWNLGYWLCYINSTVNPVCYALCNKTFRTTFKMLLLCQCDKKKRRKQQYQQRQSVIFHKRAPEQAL
The next assay deals with D(1A) dopamine receptor (Homo sapiens, UniProt P21728). Type of assay: functional, cell-based.
Sequence of D(1A) dopamine receptor (P21728 whole entry): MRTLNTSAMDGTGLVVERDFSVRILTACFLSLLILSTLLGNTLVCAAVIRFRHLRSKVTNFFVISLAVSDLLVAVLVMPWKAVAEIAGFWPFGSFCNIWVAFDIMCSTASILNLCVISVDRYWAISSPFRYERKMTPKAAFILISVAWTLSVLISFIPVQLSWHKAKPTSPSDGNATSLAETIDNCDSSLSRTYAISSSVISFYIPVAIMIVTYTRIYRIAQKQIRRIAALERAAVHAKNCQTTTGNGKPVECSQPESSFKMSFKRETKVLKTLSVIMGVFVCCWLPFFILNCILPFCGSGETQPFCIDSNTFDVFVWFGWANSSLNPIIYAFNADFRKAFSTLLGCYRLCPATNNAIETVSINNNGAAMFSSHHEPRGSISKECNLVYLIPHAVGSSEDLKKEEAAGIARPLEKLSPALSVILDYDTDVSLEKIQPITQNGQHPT
Another assay deals with Melanocortin receptor 3 (Homo sapiens, UniProt P41968).
Sequence of Melanocortin receptor 3 (P41968 whole entry): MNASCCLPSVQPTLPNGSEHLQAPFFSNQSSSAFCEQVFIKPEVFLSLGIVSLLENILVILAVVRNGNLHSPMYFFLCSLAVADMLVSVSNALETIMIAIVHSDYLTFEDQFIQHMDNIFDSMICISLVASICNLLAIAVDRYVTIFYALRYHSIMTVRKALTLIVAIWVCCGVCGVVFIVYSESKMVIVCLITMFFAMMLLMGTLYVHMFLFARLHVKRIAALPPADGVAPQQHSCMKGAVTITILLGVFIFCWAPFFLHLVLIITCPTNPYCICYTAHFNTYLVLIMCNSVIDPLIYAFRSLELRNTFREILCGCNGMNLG
Assay [5] addresses Delta-type opioid receptor (Homo sapiens, UniProt P41143).
Assay [6] concerns the target 3',5'-cyclic-AMP phosphodiesterase 4D (Homo sapiens, UniProt Q08499). In kind it is functional.
The next assay addresses D(3) dopamine receptor (Homo sapiens, UniProt P35462).
The target of assay [7] is 5-hydroxytryptamine receptor 2B (Homo sapiens, UniProt P41595). Type of assay: functional, cell-based.
Sequence of 5-hydroxytryptamine receptor 2B (P41595 whole entry): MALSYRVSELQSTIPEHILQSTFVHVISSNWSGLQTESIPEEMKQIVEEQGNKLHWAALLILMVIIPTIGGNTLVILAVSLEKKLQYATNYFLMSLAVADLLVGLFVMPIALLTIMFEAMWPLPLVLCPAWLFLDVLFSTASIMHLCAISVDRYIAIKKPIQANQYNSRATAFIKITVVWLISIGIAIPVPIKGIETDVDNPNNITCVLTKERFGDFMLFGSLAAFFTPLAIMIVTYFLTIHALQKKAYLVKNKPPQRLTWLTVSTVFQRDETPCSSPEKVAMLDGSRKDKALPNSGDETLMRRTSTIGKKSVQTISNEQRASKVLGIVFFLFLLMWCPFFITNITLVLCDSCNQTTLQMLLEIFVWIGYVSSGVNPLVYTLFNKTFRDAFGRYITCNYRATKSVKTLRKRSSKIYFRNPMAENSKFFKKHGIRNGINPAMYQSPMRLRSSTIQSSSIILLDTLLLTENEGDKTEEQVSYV
The target in assay [8] is T5, Equilibrative nucleoside transporter 1 (Homo sapiens, UniProt Q99808).
T5 sequence (Q99808 whole entry): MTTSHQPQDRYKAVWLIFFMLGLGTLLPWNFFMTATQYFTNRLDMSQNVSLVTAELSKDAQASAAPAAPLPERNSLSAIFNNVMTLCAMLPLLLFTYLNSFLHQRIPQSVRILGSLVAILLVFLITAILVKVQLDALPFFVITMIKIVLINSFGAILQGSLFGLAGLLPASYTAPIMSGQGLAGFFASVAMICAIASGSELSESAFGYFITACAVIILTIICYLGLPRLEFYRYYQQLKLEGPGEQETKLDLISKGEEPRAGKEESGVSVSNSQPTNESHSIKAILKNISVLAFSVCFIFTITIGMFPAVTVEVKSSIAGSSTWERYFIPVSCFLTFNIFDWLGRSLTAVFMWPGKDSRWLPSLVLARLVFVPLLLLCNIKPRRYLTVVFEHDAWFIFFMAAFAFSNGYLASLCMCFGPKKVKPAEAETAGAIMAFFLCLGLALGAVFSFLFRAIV

Assay [9] addresses T6, Sodium-dependent noradrenaline transporter (Homo sapiens, UniProt P23975).
The target of assay [10] is T6, Sodium-dependent noradrenaline transporter. This is another data set of the same source.

SMILES strings stand for the structures.
Also: assay procedure not described here.

Sequence of Delta-type opioid receptor (P41143 whole entry): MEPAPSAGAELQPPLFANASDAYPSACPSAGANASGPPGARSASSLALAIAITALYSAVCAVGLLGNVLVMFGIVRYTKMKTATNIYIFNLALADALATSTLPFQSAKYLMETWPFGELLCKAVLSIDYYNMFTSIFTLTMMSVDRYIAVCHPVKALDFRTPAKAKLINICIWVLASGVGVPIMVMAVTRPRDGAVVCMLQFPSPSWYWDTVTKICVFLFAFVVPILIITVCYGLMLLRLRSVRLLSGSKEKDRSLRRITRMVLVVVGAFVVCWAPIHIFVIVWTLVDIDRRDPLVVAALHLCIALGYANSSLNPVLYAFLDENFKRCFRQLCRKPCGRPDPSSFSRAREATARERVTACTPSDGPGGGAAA
Sequence of D(3) dopamine receptor (P35462 whole entry): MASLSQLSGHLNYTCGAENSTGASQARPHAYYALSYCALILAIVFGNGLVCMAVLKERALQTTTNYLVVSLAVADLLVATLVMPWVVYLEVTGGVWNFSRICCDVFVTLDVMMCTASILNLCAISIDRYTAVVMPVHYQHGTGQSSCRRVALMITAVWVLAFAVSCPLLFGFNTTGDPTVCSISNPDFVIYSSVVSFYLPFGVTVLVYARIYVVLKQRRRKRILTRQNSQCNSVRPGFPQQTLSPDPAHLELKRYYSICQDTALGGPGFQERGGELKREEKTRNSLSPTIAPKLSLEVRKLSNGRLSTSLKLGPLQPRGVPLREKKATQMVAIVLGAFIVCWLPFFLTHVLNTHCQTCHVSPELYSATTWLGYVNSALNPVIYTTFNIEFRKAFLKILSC
Sequence of 3',5'-cyclic-AMP phosphodiesterase 4D (Q08499 whole entry): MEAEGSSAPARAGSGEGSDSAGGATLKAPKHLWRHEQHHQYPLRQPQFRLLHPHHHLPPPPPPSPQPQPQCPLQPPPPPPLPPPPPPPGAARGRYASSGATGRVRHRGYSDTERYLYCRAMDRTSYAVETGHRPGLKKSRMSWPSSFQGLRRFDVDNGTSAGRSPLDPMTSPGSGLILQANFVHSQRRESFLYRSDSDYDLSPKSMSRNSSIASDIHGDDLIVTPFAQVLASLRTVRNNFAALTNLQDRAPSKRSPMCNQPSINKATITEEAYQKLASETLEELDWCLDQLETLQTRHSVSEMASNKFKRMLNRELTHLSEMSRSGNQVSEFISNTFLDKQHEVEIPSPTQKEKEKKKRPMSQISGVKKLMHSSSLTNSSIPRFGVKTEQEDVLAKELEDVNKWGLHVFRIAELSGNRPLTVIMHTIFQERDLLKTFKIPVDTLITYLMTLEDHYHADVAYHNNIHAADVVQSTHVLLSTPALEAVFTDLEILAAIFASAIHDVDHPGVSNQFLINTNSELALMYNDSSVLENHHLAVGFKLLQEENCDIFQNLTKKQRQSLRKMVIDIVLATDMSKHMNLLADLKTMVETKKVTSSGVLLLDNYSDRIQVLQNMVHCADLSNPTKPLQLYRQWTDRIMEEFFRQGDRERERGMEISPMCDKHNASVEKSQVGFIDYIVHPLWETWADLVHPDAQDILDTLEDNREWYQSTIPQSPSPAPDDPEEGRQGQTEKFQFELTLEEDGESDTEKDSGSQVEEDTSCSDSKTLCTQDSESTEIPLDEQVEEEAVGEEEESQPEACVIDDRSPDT
T6 sequence (P23975 whole entry): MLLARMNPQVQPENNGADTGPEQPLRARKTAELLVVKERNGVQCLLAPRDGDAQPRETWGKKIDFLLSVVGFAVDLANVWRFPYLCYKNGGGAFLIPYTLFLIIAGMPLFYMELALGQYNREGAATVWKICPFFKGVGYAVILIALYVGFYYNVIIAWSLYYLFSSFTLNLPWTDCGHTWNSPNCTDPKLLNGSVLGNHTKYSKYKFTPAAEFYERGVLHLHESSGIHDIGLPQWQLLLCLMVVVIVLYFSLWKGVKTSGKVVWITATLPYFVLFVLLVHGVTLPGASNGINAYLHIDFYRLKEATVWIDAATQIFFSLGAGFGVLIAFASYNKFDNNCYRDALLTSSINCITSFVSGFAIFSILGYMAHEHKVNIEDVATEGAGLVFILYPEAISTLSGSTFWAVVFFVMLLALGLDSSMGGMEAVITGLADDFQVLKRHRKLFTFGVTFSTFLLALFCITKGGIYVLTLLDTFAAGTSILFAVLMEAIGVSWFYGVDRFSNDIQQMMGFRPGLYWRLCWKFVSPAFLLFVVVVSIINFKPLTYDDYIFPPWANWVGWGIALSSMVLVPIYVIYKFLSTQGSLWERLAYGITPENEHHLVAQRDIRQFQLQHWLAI

Take `CC(=O)NCCCS(=O)(=O)O` [ACAMPROSATE]: the half-maximal activity concentration (AC50) (on Adenosine receptor A1; in [1]; in assay [2]; in assay [3]; in assay [4]; at D(1A) dopamine receptor) was more than 30 µM each time. Further, the half-maximal activity concentration (AC50) (at Melanocortin receptor 3; in assay [5]; in assay [6]; on D(3) dopamine receptor) was more than 30 µM each time.
On to `CC(=O)Nc1ccc(O)cc1` [ACETAMINOPHEN], for which the AC50 (on Adenosine receptor A1; in assay [2]; in [3]; in [7]; at Melanocortin receptor 3; in assay [5]) was more than 30 µM each time. Further, the AC50 (in [6]; in assay [8]; in [9]; in [10]; at D(3) dopamine receptor) was more than 30 µM throughout.
`CC[C@H]1OC(=O)[C@H](C)[C@@H](O[C@H]2C[C@@](C)(OC)[C@@H](O)[C@H](C)O2)[C@H](C)[C@@H](O[C@@H]2O[C@H](C)C[C@H](N(C)C)[C@H]2O)[C@](C)(O)C[C@@H](C)CN(C)[C@H](C)[C@@H](O)[C@]1(C)O` [AZITHROMYCIN]: the AC50 (usually the concentration at which the activity in the assay is half-maximal) on Adenosine receptor A1 was more than 30 µM; in assay [1], more than 10 µM; in assay [2], more than 30 µM; in assay [3], more than 10 µM; at D(1A) dopamine receptor, more than 10 µM; in [7] it was more than 30 µM. Also, the AC50 on Melanocortin receptor 3 is more than 30 µM; in [5], more than 10 µM; in assay [6], more than 30 µM; in [8], more than 30 µM; in assay [9], more than 30 µM; in assay [10], more than 10 µM. This compound gave an AC50 on D(3) dopamine receptor of more than 10 µM.
For the compound `NCC(CC(=O)O)c1ccc(Cl)cc1` (centres undefined) [BACLOFEN], the AC50 (on Adenosine receptor A1; in [1]; in [2]; in assay [3]; at D(1A) dopamine receptor; in assay [7]) was more than 30 µM in each case. In addition, the AC50 (at Melanocortin receptor 3; in [5]; in assay [6]; in [8]; in assay [9]; in assay [10]) was more than 30 µM throughout. Moreover, on D(3) dopamine receptor, the AC50 is more than 30 µM.
Turning to `CC(C)C[C@H]1C(=O)N2CCC[C@H]2[C@]2(O)O[C@](NC(=O)[C@@H]3C=C4c5cccc6[nH]c(Br)c(c56)C[C@H]4N(C)C3)(C(C)C)C(=O)N12` [BROMOCRIPTINE], the half-maximal activity concentration (AC50) at Adenosine receptor A1 was more than 30 µM; in assay [2], more than 30 µM; in assay [3] it was more than 30 µM; at D(1A) dopamine receptor, 1.52 µM; in [7], more than 30 µM; on Melanocortin receptor 3, more than 30 µM. Moreover, the AC50 in assay [5] is more than 30 µM; in assay [6], 5.5 µM; in assay [8] it was 13 µM; in assay [9], more than 30 µM; in assay [10] it was more than 30 µM; on D(3) dopamine receptor, 0.105 µM.
Turning to `Cc1cccc(Nc2ccccc2C(=O)O)c1C` [MEFENAMIC ACID], the AC50 on Adenosine receptor A1 was more than 10 µM; in [1] it was more than 10 µM; in [2], more than 10 µM; in [3], more than 10 µM; at D(1A) dopamine receptor, more than 10 µM; in assay [7], more than 30 µM. In addition, the AC50 is more than 10 µM on Melanocortin receptor 3; more than 30 µM in [5]; more than 30 µM in [6]; more than 10 µM in assay [8]; more than 30 µM in assay [9]; more than 10 µM in [10]. Also, the AC50 at D(3) dopamine receptor is more than 30 µM.
With `CS(=O)(=O)c1ccc(C2=C(c3ccccc3)C(=O)OC2)cc1` [ROFECOXIB], the AC50 is more than 30 µM at Adenosine receptor A1; more than 30 µM in assay [1]; more than 30 µM in [2]; more than 30 µM in [3]; more than 10 µM on D(1A) dopamine receptor; more than 30 µM in assay [7]. The concentration at half-maximal activity (AC50) at Melanocortin receptor 3 was more than 30 µM; in assay [5] it was more than 10 µM; in [6], more than 30 µM; in assay [8], more than 30 µM; in assay [9] it was more than 30 µM; in assay [10] it was more than 10 µM. Further, the AC50 at D(3) dopamine receptor was more than 10 µM.
Regarding `CO[C@H]1C[C@@H]2CC[C@@H](C)[C@@](O)(O2)C(=O)C(=O)N2CCCC[C@H]2C(=O)O[C@H]([C@H](C)C[C@@H]2CC[C@@H](O)[C@H](OC)C2)CC(=O)[C@H](C)/C=C(\C)[C@@H](O)[C@@H](OC)C(=O)[C@H](C)C[C@H](C)/C=C/C=C/C=C/1C` [SIROLIMUS], the AC50 at Adenosine receptor A1 was more than 30 µM; in assay [1] it was more than 10 µM; in [2], more than 30 µM; in assay [3], more than 10 µM; on D(1A) dopamine receptor it was more than 10 µM; in assay [7] it was more than 30 µM. Besides, the AC50 on Melanocortin receptor 3 was more than 30 µM; in [5] it was more than 30 µM; in [6] it was more than 30 µM; in assay [8], 6.8 µM; in [9], more than 30 µM; in assay [10], more than 30 µM. At D(3) dopamine receptor, this compound showed an AC50 of 0.87 µM.
On to `Cc1cn([C@H]2C=C[C@@H](CO)O2)c(=O)[nH]c1=O` [STAVUDINE], for which the AC50 is more than 30 µM on Adenosine receptor A1; more than 10 µM in assay [1]; more than 30 µM in assay [2]; more than 10 µM in [3]; more than 10 µM on D(1A) dopamine receptor; more than 30 µM in [7]. Moreover, the AC50 was more than 30 µM at Melanocortin receptor 3; more than 10 µM in assay [5]; more than 30 µM in assay [6]; more than 30 µM in assay [8]; more than 30 µM in assay [9]; more than 10 µM in assay [10]. The compound also registered a half-maximal activity concentration (AC50) on D(3) dopamine receptor of more than 10 µM.
For the compound `Cc1cn([C@H]2C[C@H](N=[N+]=[N-])[C@@H](CO)O2)c(=O)[nH]c1=O` [ZIDOVUDINE], the AC50 is more than 30 µM at Adenosine receptor A1; more than 10 µM in assay [1]; more than 30 µM in assay [2]; more than 10 µM in assay [3]; more than 10 µM at D(1A) dopamine receptor; more than 30 µM in assay [7]. Moreover, the AC50 on Melanocortin receptor 3 was more than 30 µM; in [5], more than 30 µM; in assay [6], more than 30 µM; in assay [8] it was more than 30 µM; in assay [9] it was more than 30 µM; in assay [10] it was more than 10 µM. The compound further had an AC50 at D(3) dopamine receptor of more than 10 µM.
